Experimental findings from EP4085921A1 (priority 2021, dated 2022) are described below.

For data set [1] the following is noted: as a function of the treatment time interval; Fig. 18.

Take `CC[C@H](C)[C@H](NC(=O)[C@H](Cc1ccc(O)cc1)NC(=O)[C@@H](NC(=O)[C@H](CCCNC(=N)N)NC(=O)[C@@H](N)CC(=O)O)C(C)C)C(=O)N[C@@H](Cc1c[nH]cn1)C(=O)N1CCC[C@H]1C(=O)O` [Angiotensin-(1-7), Asp-Arg-Val-Tyr-Ile-His-Pro]: the “averaged Angiotensin-(1-7) levels” value in data set [1] is given as “does not result in increased Ang-(1-7) levels”. Moreover, the “side-effects in the clinical trial” value (5 to 25 mcg/kg/24h range as stated) was “very safe without severe Ang-(1-7)-related side-effects”. The hypotension as side-effect result (Ang-(1-7) administration in the defined concentration range) was “not a side-effect”. Besides, the “averaged blood pressure (SBP, MAP, DBP)” value (at 11 am and 11 pm as a function of ICU days with infusion, Fig. 10, 11) is “not significantly influenced”. For the same molecule, the averaged heart rate entry (at 11 am and 11 pm as a function of ICU days with infusion, Fig. 14, 15) is given as “not influences”. Also, the average temperatures result (at 11 am during infusion, Fig. 16) was “not significantly influenced”.
